# Results from US6717008B2, “Derivatives of C2-substituted indan-1-ol compounds, methods for their preparation and use” (Aventis Pharma Deutschland GmbH, priority 2001, dated 2004).
# Key:
# female NMRI mice = test: Anorectic action: cumulative evaporated milk consumption after 24 h feed removal; type: in vivo; conditions: dose 10 mg/kg, i.p. or po (route not specified), compared with control animals
# Description: The anorectic action was tested on female NMRI mice. After removal of feed for 24 hours, the preparation to be tested was administered intraperitoneally (i.p.) or by gavage (po). The animals were housed singly and, with free access to drinking water, they were offered evaporated milk 30 minutes after administration of the preparation. The consumption of evaporated milk was determined and the general behavior of the animals was monitored every half an hour for 7 hours. The measured milk consumption was compared to that of vehicle-treated control animals.
compound,measurement,setting,value
"CC(=O)OC1c2ccc(Cl)cc2CC1S(C)(=O)=O (centres unmarked) [Example 1, 1-Acetoxy-5-chloro-2-methylsulfonylindane]",Reduction in cumulative milk consumption as % of the control,female NMRI mice,81 % of the control
same,melting point,,136 °C
